Measured values taken from patent publication US10392371B2, “Compounds useful as modulators of TRPM8” (Senomyx, Inc., priority 2015, dated 2019).

What was measured:
hTRPM8 = biological target: T1, hTRPM8 (Homo sapiens, UniProt Q7Z2W7); test: hTRPM8 agonist assay in mammalian cell line stably expressing hTRPM8; type: cell-based; conditions: EC50 of compound compared to that of WS-3, reported as a ratio
T1 construct: expressed in transfected cells
Experimental: A mammalian cell line derivative which stably expresses hTRPM8 was used in biological assays in association with testing the present compounds with cool-tasting or -feeling properties (Servant et al. US 2007/0259354 A1 and references cited therein). Typical compound concentrations tested were 100 μM, 30 μM, 10 μM, 3.3 μM, 1.1 μM, 0.37 μM, 0.12 μM, 0.04 μM, 0.01 μM and more dilutions for very potent compounds. The present compounds have shown strong activity as agonists of hTRPM8. […] For the sake of comparison, the EC50 of Comparative Compound 1, which was previously disclosed in U.S. 2013/0324557 A1 and has the structure

[1] = Cool Line Scale Test (sensory study, cooling intensity vs 45 μM WS-3); type: in vivo, human; conditions: for Sensory Results (cooling intensity relative to 45 μM WS-3): 5 μM compound vs 45 μM WS-3, Low Sodium Buffer pH ~7.1, 0.1% ethanol, 15 point line scale; for lingering effect: sensory study
Experimental: A typical sensory study is described below followed by Table 5 summarizing sensory results of Compounds 101-105.
All samples made with Low Sodium Buffer (LSB) pH ˜7.1 and contain 0.1% ethanol.
Compounds are rated on a 15 point line scale where 45 μM WS-3 (N-Ethyl-p-menthane-3-carboxamide) is ranked as a 5 in cool intensity. In most cases, the compounds are tested to determine at what concentration the cooling intensity is equivalent to 45 μM WS-3. In each test, the panelist is presented with a 0 μM control sample, a 45 μM WS-3 control sample and the experimental compound sample and asked to rate the cooling intensity of each sample.

[2] = Sensory evaluation by quantitative descriptive evaluation technique (ten trained panelists, 15-point linescale); type: in vivo, human
Experimental: Compounds 102-105 and Comparative Compound 1 were evaluated using a quantitative descriptive evaluation technique. Ten panelists participated in the study. These panelists previously underwent extensive training in the use of standardized vocabulary to describe the appearance, aroma, flavor, and texture of a variety of products. Data collection was conducted over a period of seven days, with panelists evaluating two samples on each day of testing. Two evaluations were obtained from each panelist for each compound yielding a total of 20 evaluations per compound. During the data collection, the panelists were give a list of attributes and instructed to indicate the intensity of each attribute by indicating the intensity on a 15-point linescale. The intensity was evaluated for the following time periods: in-mouth, after expectoration, and 30 seconds, 1, 2, 5, 10, 15, 30, 45, and 60 minutes into the aftertaste period.
Compounds 102, 103, and 105 were prepared as 5 μM solutions and Compound 104 and Comparative Compound 1 were prepared in 3 μM solutions. 15 mL aliqouts of the test solutions were administered to Panelists in 1 oz. plastic cups coded with a random 3-digit code. The Panelists refrained from brushing their teeth, eating, and drinking one hour before each evaluation. Mean intensities were calculated based on the Panelists responses for each sensory characteristic. The sensory characteristics evaluated were bitter, icy cool in mouth, numbing, cooling breathe in, total burning, alcohol burning, pepperine/capsaicin, tingling, and total trigeminal impact. For each sensory characteristic, the scale of the intensity was designed to cover a range encompassing the universe of products having the indicated sensory characteristic.
After mean intensities for each attribute were calculated, statistical significance for each mean intensity was calculated using analysis of variance (ANOVA) followed by Duncan's multiple comparison test at an alpha level of 5%. […] In the results provided herein, the Duncan's levels are reported as Levels A, B, and C.
Panelists were asked to assess the intensity of both capsaicin-like burning and Alcohol-like Burning sensations for Compounds 102 and 103 and Comparative Compound 1. Capsaicin-like burning is the sensation of warming or burning in the mouth, reminiscent of black pepper or hot sauce while alcohol-like burning is the sensation of warming or burning in the mouth, reminiscent of an alcohol burn. The combination of the intensity of these sensations was used to assess the total burning for the tested compounds. The average total burning after expectoration to 60 minutes was lower for both 5 μM Compound 102 and 5 μM Compound 103 as compared to 3 μM Comparative Compound 1.
The total intensity of trigeminal nerve feeling factors on the soft tissues of the mouth, including numbing, cooling (without breathing in), irritation, warming, burning, and tingling were determined for Compounds 102 and 103 and Comparative Compound 1. The average total trigeminal impact after expectoration to 60 minutes was lower for both 5 μM Compound 102 and 5 μM Compound 103 as compared to 3 μM Comparative Compound 1.
Icy cool in mouth is the sensation of coolness of the mouth, perceived with the mouth closed, not related to the temperature of the sample. Panelists were asked to assess the sensation of icy cool in mouth for Compound 104 and Compound 105 from the time immediately after expectoration of the sample through 60 minutes after expectoration. The average Icy Cool after expectoration to 60 minutes was higher for both 5 μM Compound 105 and 3 μM Compound 104 as compared to 3 μM Comparative Compound 1.
Cooling Breath In is the sensation of coolness of the mouth, when inhaling through the mouth, not related to the temperature of the sample. […]

T1 sequence (Q7Z2W7 whole entry): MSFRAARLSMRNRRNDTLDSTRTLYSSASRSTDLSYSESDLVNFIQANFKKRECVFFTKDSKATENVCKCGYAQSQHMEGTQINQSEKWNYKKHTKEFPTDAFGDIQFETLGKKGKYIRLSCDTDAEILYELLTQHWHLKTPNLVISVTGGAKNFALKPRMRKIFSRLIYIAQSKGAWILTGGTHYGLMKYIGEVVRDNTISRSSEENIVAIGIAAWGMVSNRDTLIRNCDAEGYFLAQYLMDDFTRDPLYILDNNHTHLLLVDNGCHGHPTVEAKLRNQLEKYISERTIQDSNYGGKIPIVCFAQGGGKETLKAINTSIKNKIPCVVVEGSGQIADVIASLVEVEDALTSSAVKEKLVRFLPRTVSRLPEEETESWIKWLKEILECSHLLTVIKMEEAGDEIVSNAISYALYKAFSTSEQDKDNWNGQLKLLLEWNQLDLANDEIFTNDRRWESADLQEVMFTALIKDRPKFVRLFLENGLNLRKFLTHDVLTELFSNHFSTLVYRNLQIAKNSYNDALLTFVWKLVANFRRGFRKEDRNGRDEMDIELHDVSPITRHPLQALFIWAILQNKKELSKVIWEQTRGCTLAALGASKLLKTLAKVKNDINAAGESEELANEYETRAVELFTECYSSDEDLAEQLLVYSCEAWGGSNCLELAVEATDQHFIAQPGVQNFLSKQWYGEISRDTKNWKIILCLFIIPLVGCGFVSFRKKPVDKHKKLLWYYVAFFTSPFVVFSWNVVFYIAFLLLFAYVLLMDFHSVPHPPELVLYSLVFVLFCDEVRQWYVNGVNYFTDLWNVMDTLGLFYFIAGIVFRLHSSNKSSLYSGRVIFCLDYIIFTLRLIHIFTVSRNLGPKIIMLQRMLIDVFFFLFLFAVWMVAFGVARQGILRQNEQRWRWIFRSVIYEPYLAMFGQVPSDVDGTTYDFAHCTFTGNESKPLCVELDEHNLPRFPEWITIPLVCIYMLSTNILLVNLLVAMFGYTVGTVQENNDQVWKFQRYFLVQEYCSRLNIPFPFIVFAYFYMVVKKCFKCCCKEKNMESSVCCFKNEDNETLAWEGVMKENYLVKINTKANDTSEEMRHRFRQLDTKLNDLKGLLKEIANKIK

Compound | EC50 WS-3 Ratio (hTRPM8) | Sensory Results (cooling intensity relative to 45 μM WS-3) [1] | lingering effect [1] | Average Cooling Breath In (after expectoration to 60 minutes) ([2]; 3 μM solution) | Average Icy Cool In Mouth (after expectoration to 60 minutes) ([2]; 3 μM solution) | Average Icy Cool In Mouth and Immediately After Expectoration ([2]; 3 μM solution) | Average Bitterness at 2 Minutes After Expectoration (Bitterness Rating) ([2]; 3 μM solution) | Average Numbing (after expectoration to 60 minutes) ([2]; 5 μM solution) | Average Tingling (after expectoration to 60 minutes) ([2]; 5 μM solution) | Average Total Burning (after expectoration to 60 minutes) ([2]; 5 μM solution) | Average Total Trigeminal Impact (after expectoration to 60 minutes) ([2]; 5 μM solution) | Average Bitterness at 2 Minutes After Expectoration (Bitterness Rating) ([2]; 5 μM solution) | further results
CCc1ccc(OCC(=O)N(Cc2cccs2)c2cc[nH]n2)cc1 [Compound 104, 2-(4-ethylphenoxy)-N-(1H-pyrazol-3-yl)-N-(thiophen-2-ylmethyl)acetamide] | 1189444 | significantly more cooling | unexpected lingering effect | 2.7 | 2.3 | 2.0 | 0.77 |  |  |  |  |  | 
COc1ccc(OCC(=O)N(Cc2cccs2)c2cc[nH]n2)cc1 [Compound 103, 2-(4-methoxyphenoxy)-N-(1H-pyrazol-3-yl)-N-(thiophen-2-ylmethyl)acetamide] | 1050.9 | equivalent to the cooling | unexpected lingering effect |  |  |  |  | 1.3 | 0.6 | 0.9 | 2.3 | 0.90 | 
O=C(COc1ccc(F)cc1)N(Cc1cccs1)c1cc[nH]n1 [Compound 102, 2-(4-flourophenoxy)-N-(1H-pyrazol-5-yl)-N-(thiophen-2-ylmethyl)acetamide] | 495.4 |  |  |  |  |  |  | 1.4 | 0.6 | 0.9 | 2.4 | 0.86 | 
Cc1ccc(OCC(=O)N(Cc2cccs2)c2cc[nH]n2)cc1C [Compound 105, 2-(3,4-dimethylphenoxy)-N-(1H-pyrazol-3-yl)-N-(thiophen-2-ylmethyl)acetamide] | 12169.3 |  | unexpected lingering effect |  |  |  |  |  |  |  |  | 0.82 | Average Cooling Breath In (after expectoration to 60 minutes) ([2]; 5 μM solution): 2.7; Average Icy Cool In Mouth (after expectoration to 60 minutes) ([2]; 5 μM solution): 2.3; Average Icy Cool In Mouth and Immediately After Expectoration ([2]; 5 μM solution): 1.9
Cc1ccc(OCC(=O)N(Cc2cccs2)c2ccn[nH]2)cc1 [Comparative Compound 1, reference compound] | 28648 |  |  | 2.5 | 2.1 | 1.8 | 1.10 |  |  |  |  |  | Average Numbing (after expectoration to 60 minutes) ([2]; 3 μM solution): 1.5; Average Tingling (after expectoration to 60 minutes) ([2]; 3 μM solution): 0.7; Average Total Burning (after expectoration to 60 minutes) ([2]; 3 μM solution): 1.1; Average Total Trigeminal Impact (after expectoration to 60 minutes) ([2]; 3 μM solution): 2.8
Cc1cccc(OCC(=O)N(Cc2cccs2)c2cc[nH]n2)c1 [Compound 101, N-(1H-pyrazol-3-yl)-N-(thiophen-2-ylmethyl)-2-(m-tolyloxy)acetamide] | 696.3 |  |  |  |  |  |  |  |  |  |  |  | 
